Measured values reported in PMC11653702, “Targeting the SPC25/RIOK1/MYH9 Axis to Overcome Tumor Stemness and Platinum Resistance in Epithelial Ovarian Cancer” (Advanced Science, 2024).

Legend:
patients with EOC = test system: patients with EOC; set-up: method as in 2 sources, ref 59 = [59]; PMID 22204724; doi:10.1056/NEJMoa1104390; 59 R. A. Burger , M. F. Brady , M. A. Bookman , G. F. Fleming , B. J. Monk , H. Huang , R. S. Mannel , H. D. Homesley , J. Fowler , B. E. Greer , M. Boente , M. J. Birrer , S. X. Liang , G. G. Oncolog ||| ref 61, 62, 63 = [61]; PMID 25481791; doi:10.1016/S1470-2045(14)71135-0; 61 A. M. Oza , D. Cibula , A. O. Benzaquen , C. Poole , R. H. Mathijssen , G. S. Sonke , N. Colombo , J. Spacek , P. Vuylsteke , H. Hirte , S. Mahner , M. Plante , B. Schmalfeldt , H. Mackay , J. Rowb || [62]; PMID 34485111; doi:10.3389/fonc.2021.638295; 62 N. Ren , L. Zhang , J. Yu , S. Guan , X. Dai , L. Sun , M. Ying , Front. Oncol. 2021 , 11 , 638295 . 34485111 10.3389/fonc.2021.638295 PMC8414886 || [63]; PMID 27663600; doi:10.1158/1078-0432.CCR-16-1546; 63 J. M. Lee , C. J. Peer , M. Yu , L. Amable , N. Gordon , C. M. Annunziata , N. Houston , A. K. Goey , T. M. Sissung , B. Parker , L. Minasian , V. L. Chiou , R. F. Murphy , B. C. Widemann , W. D. F; conditions: cited from earlier work; for PFS or OS during chemotherapy: PARP inhibitors during chemotherapy; for maintenance treatment benefit for patient survival: PARP inhibitors, maintenance treatment of EOC
casein kinase II (CKII) = test: Inhibition of endogenous CKII kinase activity; format: cell-based, human; conditions: OVCAR3 and OVCAR8 cells
Protocol: (§1) Western Blotting: Western blotting was performed using primary antibodies detailed in Table S5 (Supporting Information). Western blotting grayscale analyses were performed using ImageJ (version 2.0.0; NIH, Bethesda, MD, USA). β-Catenin expression was quantified by determining the gray level of each band using Image J and normalized using α-tubulin.

[1] = test system: MYH9 phosphorylation at Ser1943; test: Western blotting, phosphorylation of MYH9 at Ser1943 under CX-4945, OVCAR3 and OVCAR8; format: cell-based, human; conditions: CX-4945 6 μM, OVCAR3 and OVCAR8 cells with SPC25 overexpression or silencing
Protocol: as §1
Figure S6. A) Exogenous IP assays performed to assess Ser/Thr phosphorylation status of MYH9-Myc in HEK293FT cells with or without SPC25-Flag expression. B) Quantification of nuclear or cellular fluorescence of reexpressed GFP-MYH9-WT with NLS2-2A and NLS2-3A mutants in MYH9-silenced OVCAR3 cells with or without SPC25 overexpression. C) qRT-PCR of MYH9 in OVCAR8 and SKOV3 cells with exogenous expression of MYH9 mutant variants. D) qRT-PCR of MYH9 in MYH9-silenced OVCAR3 and OVCAR8 cells with reexpression of MYH9-WT or MYH9-S1943A. E) qRT-PCR of CTNNB1 in MYH9-silenced OVCAR8 cells with reexpression of MYH9-WT or MYH9-S1943A under SPC25 silencing (left). TOP/FOP Flash analysis in MYH9-silenced OVCAR8 cells with reexpression of MYH9-WT or MYH9-S1943A under SPC25 silencing (right). F) Endogenous phosphorylation status of MYH9 at Ser1943 in OVCAR3 and OVCAR8 cells under escalating doses of CX-4945 examined through Western blotting. […]

COV644 cells = test: Tumor sphere formation, XAV939, SPC25-overexpressing COV644; format: cell-based, human; conditions: for Log(negative ratio, 2) / negative ratio / number of negative wells: XAV939 100uM, 24 wells
OVCAR3 cells = test: Tumor sphere formation, XAV939, SPC25-overexpressing OVCAR3; format: cell-based, human; conditions: for negative ratio / number of negative wells: XAV939 100uM, 24 wells

## NC(=O)c1cccc2cn(-c3ccc([C@@H]4CCCNC4)cc3)nc12 [niraparib]
Patients with EOC
  PFS or OS during chemotherapy: marginal PFS or OS enhancements
  maintenance treatment benefit for patient survival: marked benefits

## O=C(O)c1ccc2c(c1)nc(Nc1cccc(Cl)c1)c1ccncc12 [CX-4945]
Casein kinase II (CKII)
  kinase activity of endogenous CKII: completely inhibited
[1]
  SPC25-mediated promotion of MYH9 phosphorylation at Ser1943: persisted

## O=C(c1cc(Cc2n[nH]c(=O)c3ccccc23)ccc1F)N1CCN(C(=O)C2CC2)CC1 [olaparib]
Patients with EOC
  PFS or OS during chemotherapy: marginal PFS or OS enhancements
  maintenance treatment benefit for patient survival: marked benefits

## bevacizumab: biological agent combined with platinum-based regimens
Patients with EOC; added to platinum-based regimens, recurrent patients with EOC, compared with controls
  PFS prolongation: 3–4 months

## Oc1nc(-c2ccc(C(F)(F)F)cc2)nc2c1CSCC2 [XAV939]
COV644 cells; SPC25-overexpressing COV644
  enhanced stemness attributable to SPC25 overexpression (tumor sphere formation): effectively mitigated the enhanced stemness
COV644 cells; COV644-SPC25, 50 cells
  Log(negative ratio, 2): 0
  negative ratio: 1
  number of negative wells: 24
COV644 cells; COV644-SPC25, 100 cells
  Log(negative ratio, 2): 0
  negative ratio: 1
  number of negative wells: 24
COV644 cells; COV644-SPC25, 200 cells
  number of negative wells: 23
COV644 cells; COV644-SPC25, 400 cells
  number of negative wells: 23
COV644 cells; COV644-SPC25, 800 cells
  number of negative wells: 21
COV644 cells; COV644-Vector, 50 cells
  Log(negative ratio, 2): 0
  negative ratio: 1
  number of negative wells: 24
COV644 cells; COV644-Vector, 100 cells
  Log(negative ratio, 2): 0
  negative ratio: 1
  number of negative wells: 24
COV644 cells; COV644-Vector, 200 cells
  Log(negative ratio, 2): 0
  negative ratio: 1
  number of negative wells: 24
COV644 cells; COV644-Vector, 400 cells
  number of negative wells: 23
COV644 cells; COV644-Vector, 800 cells
  number of negative wells: 22
OVCAR3 cells; SPC25-overexpressing OVCAR3
  enhanced stemness attributable to SPC25 overexpression (tumor sphere formation): effectively mitigated the enhanced stemness
OVCAR3 cells; OVCAR3-SPC25, 50 cells
  negative ratio: 1
  number of negative wells: 24
OVCAR3 cells; OVCAR3-SPC25, 100 cells
  negative ratio: 1
  number of negative wells: 24
OVCAR3 cells; OVCAR3-SPC25, 200 cells
  negative ratio: 0.9167
  number of negative wells: 22
OVCAR3 cells; OVCAR3-SPC25, 400 cells
  negative ratio: 0.875
  number of negative wells: 21
OVCAR3 cells; OVCAR3-SPC25, 800 cells
  negative ratio: 0.8333
  number of negative wells: 20
OVCAR3 cells; OVCAR3-Vector, 50 cells
  negative ratio: 1
  number of negative wells: 24
OVCAR3 cells; OVCAR3-Vector, 100 cells
  negative ratio: 1
  number of negative wells: 24
OVCAR3 cells; OVCAR3-Vector, 200 cells
  negative ratio: 0.9583
  number of negative wells: 23
OVCAR3 cells; OVCAR3-Vector, 400 cells
  negative ratio: 0.9167
  number of negative wells: 22
OVCAR3 cells; OVCAR3-Vector, 800 cells
  negative ratio: 0.8333
  number of negative wells: 20
